In patent publication US10294202B2, “Pyrrolidinones as herbicides” (FMC Corporation, priority 2013, dated 2019):

Assays:
corn = experiment: Test C pre-/postemergence herbicide test; type: in vivo, Zea mays
Procedure, shortened: (§1)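 Visual rating, 0 (no effect) to 100 (complete control), versus untreated controls after 13 to 15 days in the greenhouse. Pre: seeds in loam/sand, sprayed at planting. Post: 1- to 4-leaf plants (2 to 18 cm) in peat-based mix. Compounds in non-phytotoxic solvent plus surfactant.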

nutsedge, yellow = experiment: Test C pre-/postemergence herbicide test; type: in vivo, Cyperus esculentus
Procedure, shortened: as §1

pigweed [1] = experiment: Test C pre-/postemergence herbicide test; type: in vivo, Amaranthus retroflexus
Procedure, shortened: as §1

waterhemp = experiment: Test C pre-/postemergence herbicide test; type: in vivo, Amaranthus rudis
Procedure, shortened: as §1

galium = experiment: Test C pre-/postemergence herbicide test; type: in vivo, Galium aparine; settings: Preemergence; for Plant response rating, Galium: 125 g ai/ha; for Plant response rating (scale of 0 to 100), Galium: 250 g ai/ha
Procedure, shortened: as §1

johnsongrass = experiment: Test C pre-/postemergence herbicide test; type: in vivo, Sorghum halepense
Procedure, shortened: as §1

foxtail, giant = experiment: Test C pre-/postemergence herbicide test; type: in vivo, Setaria faberii
Procedure, shortened: as §1

pigweed [2] = experiment: Test A pre-/postemergence herbicide test; type: in vivo, Amaranthus retroflexus
Procedure, shortened: (§2)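 Seeds sown in loam soil/sand blend received a preemergence directed soil spray of test chemical in non-phytotoxic solvent with surfactant; postemergence plants (2–10 cm, one- to two-leaf stage) were sprayed with the same formulation. After about 10 days in greenhouse, injury was rated visually versus untreated controls, 0 (no effect) to 100 (complete control).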

lambsquarters = experiment: Test C pre-/postemergence herbicide test; type: in vivo, Chenopodium album
Procedure, shortened: as §1

velvetleaf = experiment: Test C pre-/postemergence herbicide test; type: in vivo, Abutilon theophrasti
Procedure, shortened: as §1

oilseed rape = experiment: Test C pre-/postemergence herbicide test; type: in vivo, Brassica napus
Procedure, shortened: as §1

wheat = experiment: Test A pre-/postemergence herbicide test; type: in vivo, Triticum aestivum; settings: Postemergence
Procedure, shortened: as §2

[3] = Preemergence, 31 g ai/ha, scale 0 to 100, 0 is no effect and 100 is complete control
[4] = Preemergence, 62 g ai/ha, scale 0 to 100 (0 no effect, 100 complete control)
[5] = Preemergence, 125 g ai/ha, scale 0 to 100 (0 no effect, 100 complete control)
[6] = 62 g ai/ha, scale 0 to 100 (0 no effect, 100 complete control)
[7] = Postemergence, 31 g ai/ha, scale 0 to 100 (0 no effect, 100 complete control)
[8] = Postemergence, 62 g ai/ha, scale 0 (no effect) to 100 (complete control)
[9] = Postemergence, 125 g ai/ha, scale 0 to 100 (0 no effect, 100 complete control)
[10] = Postemergence, 250 g ai/ha, scale 0 to 100 (0 no effect, 100 complete control)
[11] = Preemergence, 125 g ai/ha, scale 0 to 100

SMILES: O=C1NCC(c2cccc(C(F)F)c2)C1C(=O)Nc1cccc(F)c1F (racemic) [Compound 211]
- Corn plant response rating (corn; [3]): 0
- Corn plant response rating (corn; [4]): 25
- Plant response rating, Corn (corn; [5]): 0
- Plant response rating (scale of 0 to 100), Corn (corn; Preemergence, 250 g ai/ha): 80
- Nutsedge, Yellow plant response rating (nutsedge, yellow; [3]): 0
- Nutsedge, Yellow plant response rating (nutsedge, yellow; [4]): 0
- Plant response rating, Nutsedge, Yellow (nutsedge, yellow; [5]): 0
- Plant response rating (scale of 0 to 100), Nutsedge, Yellow (nutsedge, yellow; Preemergence, 250 g ai/ha): 10
- Pigweed plant response rating (pigweed [1]; [4]): 0
- Plant response rating, Pigweed (pigweed [1]; [5]): 0
- Plant response rating (scale of 0 to 100), Pigweed (pigweed [1]; Preemergence, 250 g ai/ha): 70
- Waterhemp plant response rating (waterhemp; [3]): 85
- Waterhemp plant response rating (waterhemp; [4]): 75
- Plant response rating, Waterhemp (waterhemp; [5]): 100
- Plant response rating (scale of 0 to 100), Waterhemp (waterhemp; Preemergence, 250 g ai/ha): 90
- Galium plant response rating (galium; [6]): 5
- Plant response rating, Galium (galium; scale 0 to 100 (0 no effect, 100 complete control)): 85
- Plant response rating (scale of 0 to 100), Galium (galium): 100
- Johnsongrass plant response rating (johnsongrass; [3]): 0
- Johnsongrass plant response rating (johnsongrass; [4]): 0
- Plant response rating, Johnsongrass (johnsongrass; [5]): 30
- Plant response rating (scale of 0 to 100), Johnsongrass (johnsongrass; Preemergence, 250 g ai/ha): 65
- Foxtail, Giant plant response rating (foxtail, giant; [3]): 0
- Foxtail, Giant plant response rating (foxtail, giant; [4]): 70
- Plant response rating, Foxtail, Giant (foxtail, giant; [5]): 90
- Plant response rating (scale of 0 to 100), Foxtail, Giant (foxtail, giant; Preemergence, 250 g ai/ha): 95
- Plant response rating, Pigweed (pigweed [2]; 125 g ai/ha, visual rating, 0 to 100 scale, 0 no effect, 100 complete control, approximately 10 days, preemergence): 20
- Plant response rating, Pigweed (pigweed [2]; Postemergence, 125 g ai/ha, 0 to 100 scale, 0 is no effect, 100 is complete control): 0
- Pigweed plant response rating (0 to 100 scale, 0 is no effect, 100 is complete control) (pigweed [2]; Postemergence, 500 g ai/ha): 50
- Plant response rating, Pigweed (pigweed [2]; preemergence, 500 g ai/ha, 0 to 100 scale, 0 is no effect and 100 is complete control): 70
- Lambsquarters plant response rating (lambsquarters; [3]): 100
- Lambsquarters plant response rating (lambsquarters; [4]): 85
- Plant response rating, Lambsquarters (lambsquarters; [5]): 100
- Plant response rating (scale of 0 to 100), Lambsquarters (lambsquarters; Preemergence, 250 g ai/ha): 100
- Velvetleaf plant response rating (velvetleaf; [3]): 0
- Velvetleaf plant response rating (velvetleaf; [4]): 10
- Plant response rating, Velvetleaf (velvetleaf; [5]): 30
- Plant response rating (scale of 0 to 100), Velvetleaf (velvetleaf; Preemergence, 250 g ai/ha): 35
- Oilseed Rape plant response rating (oilseed rape; [3]): 0
- Oilseed Rape plant response rating (oilseed rape; [4]): 35
- Plant response rating, Oilseed Rape (oilseed rape; [5]): 90
- Plant response rating (scale of 0 to 100), Oilseed Rape (oilseed rape; Preemergence, 250 g ai/ha): 90
- Plant response rating, Wheat (wheat; 125 g ai/ha, 0 to 100 scale, 0 is no effect, 100 is complete control): 30
- Wheat plant response rating (0 to 100 scale, 0 is no effect, 100 is complete control) (wheat; 500 g ai/ha): 80

SMILES: O=C1NCC(c2cccc(OC(F)F)c2)C1C(=O)Nc1cccc(F)c1F (stereo not shown) [Compound 324]
- Plant response rating, Corn (corn; [7]): 0
- Plant response rating, Corn (corn; [8]): 0
- Plant response rating, Corn (corn; [9]): 55
- Plant response rating, Corn (corn; [10]): 0
- Corn plant response rating (corn; [3]): 25
- Corn plant response rating (corn; [4]): 70
- Plant response rating, Corn (corn; [11]): 75
- Plant response rating (scale of 0 to 100), Corn (corn; Preemergence, 250 g ai/ha): 85
- Plant response rating, Nutsedge, Yellow (nutsedge, yellow; [7]): 0
- Plant response rating, Nutsedge, Yellow (nutsedge, yellow; [8]): 0
- Plant response rating, Nutsedge, Yellow (nutsedge, yellow; [9]): 0
- Plant response rating, Nutsedge, Yellow (nutsedge, yellow; [10]): 0
- Nutsedge, Yellow plant response rating (nutsedge, yellow; [3]): 0
- Nutsedge, Yellow plant response rating (nutsedge, yellow; [4]): 0
- Plant response rating, Nutsedge, Yellow (nutsedge, yellow; [11]): 0
- Plant response rating (scale of 0 to 100), Nutsedge, Yellow (nutsedge, yellow; Preemergence, 250 g ai/ha): 35
- Plant response rating, Pigweed (pigweed [1]; [7]): 0
- Plant response rating, Pigweed (pigweed [1]; [8]): 35
- Plant response rating, Pigweed (pigweed [1]; [9]): 65
- Plant response rating, Pigweed (pigweed [1]; [10]): 55
- Pigweed plant response rating (pigweed [1]; [3]): 55
- Pigweed plant response rating (pigweed [1]; [4]): 75
- Plant response rating, Pigweed (pigweed [1]; [11]): 80
- Plant response rating, Waterhemp (waterhemp; [7]): 0
- Plant response rating, Waterhemp (waterhemp; [8]): 10
- Plant response rating, Waterhemp (waterhemp; [9]): 20
- Plant response rating, Waterhemp (waterhemp; [10]): 40
- Waterhemp plant response rating (waterhemp; [4]): 70
- Plant response rating, Waterhemp (waterhemp; [11]): 80
- Galium plant response rating (galium; 31 g ai/ha, scale 0 to 100, 0 is no effect and 100 is complete control): 0
- Galium plant response rating (galium; [6]): 60
- Plant response rating, Galium (galium; scale 0 to 100): 85
- Plant response rating (scale of 0 to 100), Galium (galium): 85
- Plant response rating, Johnsongrass (johnsongrass; [7]): 0
- Plant response rating, Johnsongrass (johnsongrass; [8]): 0
- Plant response rating, Johnsongrass (johnsongrass; [9]): 0
- Plant response rating, Johnsongrass (johnsongrass; [10]): 10
- Johnsongrass plant response rating (johnsongrass; [3]): 40
- Johnsongrass plant response rating (johnsongrass; [4]): 65
- Plant response rating, Johnsongrass (johnsongrass; [11]): 80
- Plant response rating (scale of 0 to 100), Johnsongrass (johnsongrass; Preemergence, 250 g ai/ha): 85
- Plant response rating, Foxtail, Giant (foxtail, giant; [7]): 0
- Plant response rating, Foxtail, Giant (foxtail, giant; [8]): 10
- Plant response rating, Foxtail, Giant (foxtail, giant; [9]): 75
- Plant response rating, Foxtail, Giant (foxtail, giant; [10]): 60
- Foxtail, Giant plant response rating (foxtail, giant; [3]): 90
- Foxtail, Giant plant response rating (foxtail, giant; [4]): 90
- Plant response rating, Foxtail, Giant (foxtail, giant; [11]): 95
- Plant response rating (scale of 0 to 100), Foxtail, Giant (foxtail, giant; Preemergence, 250 g ai/ha): 95
- Plant response rating, Pigweed (pigweed [2]; Postemergence, 125 g ai/ha, visual rating on 0 to 100 scale (0 no effect, 100 complete control), approx. 10 days): 40
- Plant response rating, Pigweed (pigweed [2]; Postemergence, 500 g ai/ha, 0 to 100 scale (0 no effect, 100 complete control)): 70
- Plant response rating, Pigweed (pigweed [2]; Preemergence, 125 g ai/ha, 0 to 100 scale where 0 is no effect and 100 is complete control): 30
- Pigweed plant response rating (pigweed [2]; Preemergence, 500 g ai/ha, visual rating on 0 to 100 scale (0 no effect, 100 complete control)): 60
- Plant response rating, Lambsquarters (lambsquarters; [7]): 0
- Plant response rating, Lambsquarters (lambsquarters; [8]): 55
- Plant response rating, Lambsquarters (lambsquarters; [9]): 70
- Plant response rating, Lambsquarters (lambsquarters; [10]): 65
- Lambsquarters plant response rating (lambsquarters; [3]): 50
- Lambsquarters plant response rating (lambsquarters; [4]): 70
- Plant response rating, Lambsquarters (lambsquarters; [11]): 80
- Plant response rating (scale of 0 to 100), Lambsquarters (lambsquarters; Preemergence, 250 g ai/ha): 85
- Plant response rating, Velvetleaf (velvetleaf; [7]): 0
- Plant response rating, Velvetleaf (velvetleaf; [8]): 55
- Plant response rating, Velvetleaf (velvetleaf; [9]): 50
- Plant response rating, Velvetleaf (velvetleaf; [10]): 55
- Velvetleaf plant response rating (velvetleaf; [4]): 35
- Plant response rating, Velvetleaf (velvetleaf; [11]): 40
- Plant response rating, Oilseed Rape (oilseed rape; [7]): 0
- Plant response rating, Oilseed Rape (oilseed rape; [8]): 0
- Plant response rating, Oilseed Rape (oilseed rape; [9]): 0
- Plant response rating, Oilseed Rape (oilseed rape; [10]): 0
- Oilseed Rape plant response rating (oilseed rape; [3]): 0
- Oilseed Rape plant response rating (oilseed rape; [4]): 70
- Plant response rating, Oilseed Rape (oilseed rape; [11]): 85
- Plant response rating (scale of 0 to 100), Oilseed Rape (oilseed rape; Preemergence, 250 g ai/ha): 90
- Plant response rating, Wheat (wheat; 125 g ai/ha, visual rating on 0 to 100 scale (0 no effect, 100 complete control), approx. 10 days): 30
- Plant response rating, Wheat (wheat; 500 g ai/ha, 0 to 100 scale (0 no effect, 100 complete control)): 80
